These are literature values, as cited in article PMC5407626 (PLoS ONE, 2017).

pEC50, pKd: −log10 of the molar value.

Usually pEC50 stands for the negative decadic logarithm of the EC50, by convention in mol/L.

One series addresses RBP4 (Homo sapiens, UniProt P02753). Set-up: method as in PMID 16303925. The following applies: cited from earlier work.
For series [1] the following is noted: humans; cited from earlier work.
A further series has as its target T1, RARβ (Homo sapiens, UniProt P10826).
T1 sequence (P10826 183-417 limits assumed): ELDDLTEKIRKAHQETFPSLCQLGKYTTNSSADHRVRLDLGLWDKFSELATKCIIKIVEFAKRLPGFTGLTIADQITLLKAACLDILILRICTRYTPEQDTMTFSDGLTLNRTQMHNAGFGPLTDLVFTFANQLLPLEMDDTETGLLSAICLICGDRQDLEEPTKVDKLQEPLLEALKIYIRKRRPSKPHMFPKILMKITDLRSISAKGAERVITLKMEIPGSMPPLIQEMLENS
Set-up: method as in Invitrogen. Particulars: RARβ agonist assay; ref Invitrogen; read-out: EC50 from Invitrogen; cited from earlier work.

In the case of `COc1ccc(NC(=O)/C=C(C)/C=C/C=C(C)/C=C/C2=C(C)CCCC2(C)C)cc1` [MPR, N-[4-methoxyphenyl]retinamide], the “affinity for RBP4 lower than for fenretinide or retinol” value at RBP4 is 2 fold. Also, the pKd on RBP4 (read-out: affinity for RBP4) was approximately 7.00. The “metabolite level as % of plasma levels of 4-HPR” value in series [1] is given as ~ 45%.

Turning to `CC1=C(/C=C/C(C)=C/C=C/C(C)=C/C(=O)Nc2ccc(O)cc2)C(C)(C)CCC1` [fenretinide, N-[4-hydroxyphenyl]retinamide], on RARβ, the pEC50 was 6.66.
